Data on nine molecules can be found in ChEMBL document CHEMBL3045838, “Synthesis, antimicrobial and antioxidant activities of 2-[1-{3,5-diaryl-4,5-dihydro-1H-pyrazolenyl}]-4-(4-nitrophenyl)-[1,3]-thiazoles” (2013).

Each structure is given as a SMILES string. Values after ≈ are worked out from the molar mass of the structure shown.

Common to all, as to type: functional
In assay [1] the test system is Escherichia coli. The assay can be described thus: microbe, parasite or virus in culture. To be noted: ATCC 25922.
Description: Antibacterial activity against Escherichia coli ATCC 25922 assessed as growth inhibition by serial plate dilution method
In assay [2] the test system is Aspergillus flavus. The assay can be described thus: Antifungal activity against Aspergillus flavus NCIM 524 assessed as growth inhibition by serial plate dilution method.
For assay [3], the system named is Staphylococcus aureus. The assay can be described thus: Antibacterial activity against Staphylococcus aureus ATCC 25923 assessed as growth inhibition by serial plate dilution method.
The subject of assay [4] is Pseudomonas aeruginosa. The assay can be described thus: Antibacterial activity against Pseudomonas aeruginosa ATCC 27853 assessed as growth inhibition at 1.56 to 25 ug/mL.
The subject of assay [5] is Aspergillus fumigatus. The assay can be described thus: Antifungal activity against Aspergillus fumigatus NCIM 902 assessed as growth inhibition by serial plate dilution method.
For assay [6], the system named is Talaromyces marneffei. The assay can be described thus: Antifungal activity against Talaromyces marneffei assessed as growth inhibition at 1.56 to 25 ug/mL.
The test system of assay [7] is Aspergillus flavus. The assay can be described thus: Antifungal activity against Aspergillus flavus NCIM 524 assessed as growth inhibition at 1.56 to 25 ug/mL.
The subject of assay [8] is Escherichia coli. The assay can be described thus: Antibacterial activity against Escherichia coli ATCC 25922 assessed as growth inhibition at 1.56 to 25 ug/mL.
For assay [9], the system named is Talaromyces marneffei. The assay can be described thus: Antifungal activity against Talaromyces marneffei assessed as growth inhibition by serial plate dilution method.
Assay [10] concerns Pseudomonas aeruginosa. The assay can be described thus: Antibacterial activity against Pseudomonas aeruginosa ATCC 27853 assessed as growth inhibition by serial plate dilution method.
For assay [11], the system named is Trichophyton mentagrophytes. The assay can be described thus: Antifungal activity against Trichophyton mentagrophytes assessed as growth inhibition at 1.56 to 25 ug/mL.
The test system of assay [12] is Klebsiella pneumoniae. The assay can be described thus: Antibacterial activity against Klebsiella pneumoniae assessed as growth inhibition at 1.56 to 25 ug/mL.
The subject of assay [13] is Aspergillus fumigatus. The assay can be described thus: Antifungal activity against Aspergillus fumigatus NCIM 902 assessed as growth inhibition at 1.56 to 25 ug/mL.
Assay [14] concerns Klebsiella pneumoniae. The assay can be described thus: Antibacterial activity against Klebsiella pneumoniae assessed as growth inhibition by serial plate dilution method.
Assay [15] has as its system Trichophyton mentagrophytes. The assay can be described thus: Antifungal activity against Trichophyton mentagrophytes assessed as growth inhibition by serial plate dilution method.
For assay [16], the system named is Radical scavenging activity. The assay can be described thus: Antioxidant activity assessed as inhibition of DPPH radical generation at 4000 ug/mL after 15 min by UV-Vis spectrophotometric analysis relative to control. To be noted: at 4000 µg/mL.
The subject of assay [17] is Staphylococcus aureus. The assay can be described thus: Antibacterial activity against Staphylococcus aureus ATCC 25923 assessed as growth inhibition at 1.56 to 25 ug/mL.

As a reminder, the inhibition is how much of the control response was suppressed. Turning to `COc1ccc(C2=NN(c3nc(-c4ccc([N+](=O)[O-])cc4)cs3)C(c3ccc(-c4ccc([N+](=O)[O-])cc4)o3)C2)cc1OC` (stereo not drawn), the MIC in the assay on Escherichia coli [1], in the assay with Aspergillus flavus [2], with Staphylococcus aureus [3], in the assay on Aspergillus fumigatus [5], in the assay with Talaromyces marneffei [9] and in the assay on Pseudomonas aeruginosa [10] was 6.25 µg/mL (≈ 10.5 µM) throughout. Besides, the MIC (in the assay on Klebsiella pneumoniae [14]; in assay [15]) was 6.25 µg/mL (≈ 10.5 µM) each time. Besides, the “diameter of the inhibition zone (DIZ)” value (in the assay on Pseudomonas aeruginosa [4]; with Talaromyces marneffei [6]; with Aspergillus flavus [7]; with Escherichia coli [8]; in assay [11]; in the assay on Klebsiella pneumoniae [12]) was 16 mm in each case. The “diameter of the inhibition zone (DIZ)” value with Aspergillus fumigatus [13] and in the assay with Staphylococcus aureus [17] was 16 mm throughout. Moreover, the inhibition in assay [16] is 62%.
With `COc1ccc(C2=NN(c3nc(-c4ccc([N+](=O)[O-])cc4)cs3)C(c3ccc(-c4ccc(Cl)cc4)o3)C2)cc1OC` (stereo not drawn), the MIC in the assay on Escherichia coli [1], in the assay with Aspergillus flavus [2], with Staphylococcus aureus [3], in the assay with Aspergillus fumigatus [5], in the assay with Talaromyces marneffei [9] and in the assay with Pseudomonas aeruginosa [10] was 6.25 µg/mL (≈ 10.6 µM) in each case. Also, the MIC (in the assay on Klebsiella pneumoniae [14]; in [15]) was 6.25 µg/mL (≈ 10.6 µM) throughout. Further, the “diameter of the inhibition zone (DIZ)” value (with Pseudomonas aeruginosa [4]; in the assay with Talaromyces marneffei [6]; in the assay with Aspergillus flavus [7]; in the assay with Escherichia coli [8]; in assay [11]; in the assay on Klebsiella pneumoniae [12]) was 16 mm throughout. Further, the “diameter of the inhibition zone (DIZ)” value in the assay on Aspergillus fumigatus [13] and in the assay with Staphylococcus aureus [17] was 16 mm each time. The inhibition in assay [16] was 35%.
Consider `COc1ccc(-c2ccc(C3CC(c4ccc(OC)c(OC)c4)=NN3c3nc(-c4ccc([N+](=O)[O-])cc4)cs3)o2)c([N+](=O)[O-])c1` (stereo not drawn), for which the MIC against Escherichia coli [1], in the assay on Aspergillus flavus [2], with Staphylococcus aureus [3], with Aspergillus fumigatus [5], in the assay with Talaromyces marneffei [9] and in the assay with Pseudomonas aeruginosa [10] was 12.5 µg/mL (≈ 19.9 µM) each time. In addition, the MIC (with Klebsiella pneumoniae [14]; in [15]) was 12.5 µg/mL (≈ 19.9 µM) throughout. Moreover, the “diameter of the inhibition zone (DIZ)” value (in the assay on Pseudomonas aeruginosa [4]; with Talaromyces marneffei [6]; in the assay with Aspergillus flavus [7]; in the assay on Escherichia coli [8]; in assay [11]; in the assay with Klebsiella pneumoniae [12]) was 11 mm throughout. Also, the “diameter of the inhibition zone (DIZ)” value with Aspergillus fumigatus [13] and in the assay on Staphylococcus aureus [17] was 11 mm in each case. Also, the inhibition in assay [16] was 86%.
On to `COc1ccc(C2=NN(c3nc(-c4ccc([N+](=O)[O-])cc4)cs3)C(c3ccc(-c4ccc([N+](=O)[O-])cc4C)o3)C2)cc1OC` (stereo not drawn), for which the MIC against Escherichia coli [1], with Aspergillus flavus [2], with Staphylococcus aureus [3], in the assay on Aspergillus fumigatus [5], with Talaromyces marneffei [9] and in the assay on Pseudomonas aeruginosa [10] was 6.25 µg/mL (≈ 10.2 µM) in each case. Moreover, the MIC (with Klebsiella pneumoniae [14]; in [15]) was 6.25 µg/mL (≈ 10.2 µM) each time. Moreover, the “diameter of the inhibition zone (DIZ)” value (in the assay with Pseudomonas aeruginosa [4]; in the assay with Talaromyces marneffei [6]; with Aspergillus flavus [7]; in the assay on Escherichia coli [8]; in assay [11]; in the assay on Klebsiella pneumoniae [12]) was 16 mm each time. Besides, the “diameter of the inhibition zone (DIZ)” value in the assay on Aspergillus fumigatus [13] and with Staphylococcus aureus [17] was 16 mm each time. Moreover, the inhibition in [16] turned out to be 14%.
As for `CSc1ccc(C2CC(c3ccc(Cl)cc3)=NN2c2nc(-c3ccc([N+](=O)[O-])cc3)cs2)cc1` (stereo not drawn), the MIC against Escherichia coli [1], in the assay on Aspergillus flavus [2], in the assay on Staphylococcus aureus [3], in the assay on Aspergillus fumigatus [5], with Talaromyces marneffei [9] and with Pseudomonas aeruginosa [10] was 6.25 µg/mL (≈ 12.3 µM) each time. Further, the MIC (in the assay on Klebsiella pneumoniae [14]; in [15]) was 6.25 µg/mL (≈ 12.3 µM) each time. Also, the “diameter of the inhibition zone (DIZ)” value (with Pseudomonas aeruginosa [4]; in the assay with Talaromyces marneffei [6]; in the assay on Aspergillus flavus [7]; in the assay on Escherichia coli [8]; in assay [11]; with Klebsiella pneumoniae [12]) was 16 mm each time. For the same molecule, the “diameter of the inhibition zone (DIZ)” value with Aspergillus fumigatus [13] and in the assay with Staphylococcus aureus [17] was 16 mm throughout. The inhibition in assay [16] came to 38%.
For `O=[N+]([O-])c1ccc(-c2csc(N3N=C(c4ccccc4)CC3c3ccc(-c4ccc(Cl)cc4)o3)n2)cc1` (stereo not drawn), the MIC against Escherichia coli [1], with Aspergillus flavus [2], in the assay on Staphylococcus aureus [3], with Aspergillus fumigatus [5], in the assay on Talaromyces marneffei [9] and with Pseudomonas aeruginosa [10] was 12.5 µg/mL (≈ 23.7 µM) in each case. Moreover, the MIC (with Klebsiella pneumoniae [14]; in [15]) was 12.5 µg/mL (≈ 23.7 µM) in each case. In addition, the “diameter of the inhibition zone (DIZ)” value (in the assay on Pseudomonas aeruginosa [4]; with Talaromyces marneffei [6]; in the assay on Aspergillus flavus [7]; in the assay with Escherichia coli [8]; in assay [11]; with Klebsiella pneumoniae [12]) was 11 mm each time. Further, the “diameter of the inhibition zone (DIZ)” value with Aspergillus fumigatus [13] and in the assay on Staphylococcus aureus [17] was 11 mm throughout. Moreover, in [16], the inhibition was 45%.
On to `COc1ccc(C2=NN(c3nc(-c4ccc([N+](=O)[O-])cc4)cs3)C(c3ccc(-c4cc(Cl)c(Cl)cc4Cl)o3)C2)cc1OC` (stereo not drawn), for which the MIC against Escherichia coli [1], with Aspergillus flavus [2], with Staphylococcus aureus [3], in the assay with Aspergillus fumigatus [5], in the assay on Talaromyces marneffei [9] and in the assay with Pseudomonas aeruginosa [10] was 6.25 µg/mL (≈ 9.53 µM) in each case. Also, the MIC (in the assay with Klebsiella pneumoniae [14]; in assay [15]) was 6.25 µg/mL (≈ 9.53 µM) each time. The “diameter of the inhibition zone (DIZ)” value (in the assay on Pseudomonas aeruginosa [4]; with Talaromyces marneffei [6]; with Aspergillus flavus [7]; with Escherichia coli [8]; in assay [11]; in the assay with Klebsiella pneumoniae [12]) was 16 mm throughout. Moreover, the “diameter of the inhibition zone (DIZ)” value with Aspergillus fumigatus [13] and with Staphylococcus aureus [17] was 16 mm each time. Besides, the inhibition in assay [16] was 57%.
For `COc1ccc(C2=NN(c3nc(-c4ccc([N+](=O)[O-])cc4)cs3)C(c3ccc(-c4ccc(Cl)cc4[N+](=O)[O-])o3)C2)cc1OC` (stereo not drawn), the MIC with Escherichia coli [1], in the assay on Aspergillus flavus [2], with Staphylococcus aureus [3], in the assay with Aspergillus fumigatus [5], in the assay with Talaromyces marneffei [9] and in the assay with Pseudomonas aeruginosa [10] was 12.5 µg/mL (≈ 19.8 µM) each time. The MIC (in the assay on Klebsiella pneumoniae [14]; in assay [15]) was 12.5 µg/mL (≈ 19.8 µM) throughout. In addition, the “diameter of the inhibition zone (DIZ)” value (with Pseudomonas aeruginosa [4]; in the assay with Talaromyces marneffei [6]; in the assay with Aspergillus flavus [7]; in the assay on Escherichia coli [8]; in assay [11]; in the assay with Klebsiella pneumoniae [12]) was 11 mm in each case. The “diameter of the inhibition zone (DIZ)” value in the assay on Aspergillus fumigatus [13] and in the assay on Staphylococcus aureus [17] was 11 mm throughout. Moreover, the inhibition in [16] worked out at 82%.
Regarding `COc1ccc(C2=NN(c3nc(-c4ccc([N+](=O)[O-])cc4)cs3)C(c3ccc(-c4ccc(F)c(Cl)c4)o3)C2)cc1OC` (stereo not drawn), the MIC in the assay on Escherichia coli [1], in the assay with Aspergillus flavus [2], in the assay with Staphylococcus aureus [3], in the assay with Aspergillus fumigatus [5], in the assay on Talaromyces marneffei [9] and with Pseudomonas aeruginosa [10] was 6.25 µg/mL (≈ 10.3 µM) each time. Further, the MIC (in the assay on Klebsiella pneumoniae [14]; in assay [15]) was 6.25 µg/mL (≈ 10.3 µM) each time. Further, the “diameter of the inhibition zone (DIZ)” value (with Pseudomonas aeruginosa [4]; in the assay on Talaromyces marneffei [6]; with Aspergillus flavus [7]; with Escherichia coli [8]; in [11]; in the assay with Klebsiella pneumoniae [12]) was 16 mm in each case. In addition, the “diameter of the inhibition zone (DIZ)” value in the assay with Aspergillus fumigatus [13] and with Staphylococcus aureus [17] was 16 mm in each case. For the same molecule, the inhibition in assay [16] was determined as 74%.
